Where a name gives a salt, the structure may show the parent alone.
What was measured:
Type in all cases: physicochemical
[1] = Behaviour to humidity by Gravimetric Vapour Sorption (GVS); conditions: for Behaviour to humidity: GVS, 0-90% humidity, 25° C.; for water adsorbed: up to 90% humidity
Method: Gravimetric Vapour Sorption—Sorption isotherms were obtained using a Hiden Isochema moisture sorption analyser (model IGAsorp), controlled by IGAsorp Systems Software V6.50.48. The sample was maintained at a constant temperature (25° C.) by the instrument controls. The humidity was controlled by mixing streams of dry and wet nitrogen, with a total flow of 250 ml·min^−1. The instrument was verified for relative humidity content by measuring three calibrated Rotronic salt solutions (10-50-88%). The weight change of the sample was monitored as a function of humidity by a microbalance (accuracy+/−0.005 mg). A defined amount of sample was placed in a tared mesh stainless steel basket under ambient conditions. A full experimental cycle typically consisted of three scans (sorption, desorption and sorption) at a constant temperature (25° C.) and 10% RH intervals over a 0-90% range (60 minutes for each humidity level).
(§1) The nature of the hydration and a preliminary examination of salt robustness/polymorphism was assessed by thermal manipulation using ThermoGravimetric Analysis (TGA) and Gravimetric Vapor Soprtion (GVS).

[2] = Aerosol performance of DPI formulations (Cyclohaler, NGI); conditions: for †Measured Mass of 1% w/w Blend Delivered per capsule / ††RPL554 Emitted (μg) per capsule (B): Cyclohaler; for †Measured Mass of 1% w/w Blend Delivered per capsule: 5 capsules containing 20 mg powder blend, mass from weight change of capsule-loaded device; for ††RPL554 Emitted (μg) per capsule (B): NGI, mass determined from HPLC analysis of recovered samples; for ††RPL554 Emitted (μg) per capsule (B) / Calculated RPL554 Content (μg) per capsule (A): as RPL554 base; for Calculated RPL554 Content (μg) per capsule (A): calculated from delivered blend mass and measured blend content
In short: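 Capsules held 20 mg of 1% w/w RPL554 free base or salt:lactose blend (200 μg salt, not adjusted for molecular weight). Fired from Cyclohaler at 90 L/min for 2.7 s into NGI with pre-separator, 5 capsules per formulation; drug recovered from device, induction port and stages to derive ED, FPD, FPF.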

[3] = Thermal manipulation (isothermal 105° C., thermal cycle; TGA/DSC/XRPD)
Method: Differential Scanning calorimetry (DSC)—DSC data were collected on a PerkinElmer Pyris 4000 DSC equipped with a 45 position sample holder. The instrument was verified for energy and temperature calibration using certified indium. A predefined amount of the sample, 0.5-3.0 mg, was placed in a pin holed aluminium pan and heated at 20° C.·min^−1 from 30 to 350° C., or varied as experimentation dictated. A purge of dry nitrogen at 60 ml·min^−1 was maintained over the sample. The instrument control, data acquisition and analysis were performed with Pyris Software v9.0.1.0203.
Thermo-Gravimetric Analysis (TGA)—TGA data were collected on a PerkinElmer Pyris 1 TGA equipped with a 20 position auto-sampler. The instrument was calibrated using a certified weight and certified Alumel and Perkalloy for temperature. A predefined amount of the sample, 1-5 mg, was loaded onto a pre-tared aluminium crucible and was heated at 20° C.·min^−1 from ambient temperature to 400° C. A nitrogen purge at 20 ml·min^−1 was maintained over the sample. The instrument control, data acquisition and analysis were performed with Pyris Software v9.0.1.0203.
as §1

[4] = Stability assessment of RPL554 and salts: lactose powder blends (70° C., seven days); conditions: after storage at both room and elevated (70° C.) temperatures, 7 days
Method: A validated HPLC method (Onyx-Scientific, Final product testing monograph for RPL554) for the determination of chemical purity by HPLC was used.
The following chromatography conditions were used: Column: Waters X Bridge phenyl, 3.5 μm, 150×4.6 mm, (Part number 186003335); Diluent: Acetonitrile:Water (50:50, v/v); Mobile Phase: A—Purified Water:Trifluoroacetic acid (100:0.1); B—Acetonitrile:Trifluoroacetic acid (100:0.1); Flow Rate: 1.0 mL/min; Injection Volume: 10 μl; Detection: UV @ 254 nm; Column Temperature: 30° C.; Post Run: 5 min; Gradient: [Time (min): % A:% B]: [0: 95:5], [2: 95:5]; [15: 5:95], [20: 5:95], [22: 95:5].
Samples of 1% w/w RPL554 free base or salt variants: lactose blends were prepared and stored at elevated temperature (70° C.) for seven days, control samples were stored at ambient conditions and protected from light on the laboratory bench. All samples (approximately 0.5 g) were accurately weighed into screw cap glass scintillation vials (20 mL). For storage at elevated temperature samples were placed in an oven at 70° C. protected from light. Control sample vials were capped, protected from light and stored on the bench for 7 days.
In addition, to the RPL554 and salt variant blends, samples of lactose alone were also stored at the elevated temperature condition (control samples at ambient). The lactose only samples served as baseline data for the HPLC analysis. […]

[5] = listed as ethane-1,2-disulfonate salt
[6] = listed as hydrochloride salt, hydrochloride

| Structure (SMILES) | Behaviour to humidity [1, 5] | water uptake ([1]; to 50% humidity) [mole equivalents] | water adsorbed [1, 5] | †Measured Mass of 1% w/w Blend Delivered per capsule [2] [mg] | ††RPL554 Emitted (μg) per capsule (B) [2] [µg] | Calculated RPL554 Content (μg) per capsule (A) [2] [µg] | form change by thermal manipulation ([3]; below the melt endotherm) | Thermal cycle ([3]; hydrochloride) | Behaviour to humidity [1, 6] | water adsorbed [1, 6] | †Measured Mass of 1% w/w Blend Delivered per capsule ([2]; hydrochloride) [mg] | ††RPL554 Emitted (μg) per capsule (B) ([2]; hydrochloride) [µg] | Calculated RPL554 Content (μg) per capsule (A) ([2]; hydrochloride) [µg] | peak area of the RPL554, % of the total areas [4] [%] |
| --- | --- | --- | --- | --- | --- | --- | --- | --- | --- | --- | --- | --- | --- | --- |
| COc1cc2c(cc1OC)-c1c/c(=N\c3c(C)cc(C)cc3C)n(CCNC(N)=O)c(=O)n1CC2 [Ethane-1,2-disulfonate, RPL554 ethane-1,2-disulfonate] | reversible adsorption and desorption over the humidity range with no hysteresis | 4 | up to 5 mole equivalents | 19.90 | 87.91 | 133.06 | – | – | – | – | – | – | – | – |
| COc1cc2c(cc1OC)-c1c/c(=N\c3c(C)cc(C)cc3C)n(CCNC(N)=O)c(=O)n1CC2 [Hydrochloride, RPL554 hydrochloride] | – | – | – | – | – | – | No form change was detected | Stable form | reversible adsorption and desorption over the humidity range with no hysteresis | up to 2 mole equivalents | 20.14 | 102.27 | 157.96 | – |
| COc1cc2c(cc1OC)-c1c/c(=N\c3c(C)cc(C)cc3C)n(CCNC(N)=O)c(=O)n1CC2 [Sulfate, RPL554 sulfate] | – | – | – | 19.78 | 79.35 | 120.61 | – | – | – | – | – | – | – | 82 |
